Patent publication US20240299422A1, “Topical Cannabinoid Compositions and Methods for Treating Skin Diseases” (Avicanna Inc., priority 2021, published 2024)

Test: Plasma profile of CBD after topical application in rats
Assay type: in vivo, Sprague Dawley Rats
Procedure: 12 Female Sprague Dawley Rats (150-200 g) were purchased from Charles River Laboratories (Wilmington, MA). Rats were allowed to acclimatise for one week prior to commencement of the study.
At day 0, rats were anaesthetised using 3% isoflurane via inhalation. The skin on the dorsal side of the rats was shaved and a circular area of approximately 18.09 cm^2 was marked onto the surface of the skin. Twice daily, cream was applied to the dorsal surface of the skin using a 1 ml syringe that was prefilled with the composition described in Example 1 at a dose of 15 mg/kg of cannabidiol (CBD). Following the application of the cream and in order to prevent the cream from being removed, dermal application jackets were applied to each of the rats. These were maintained on the animals for the duration of the study (i.e. 7 days). Every 24 hours, blood was collected by puncturing the saphenous vein with a 20 G needle. At each time point, approximately 200 μL of blood was collected into Microvette™ 200 ZGel collection tubes (Sarstedt). Blood samples were centrifuged at 1.5×104 RPM for 5 mins. Following this, plasma was isolated and stored at −80° C. until the end of the study when all samples were analysed simultaneously. […]
Plasma (20 μL) was added to a 1:1 (v/v) solution of acetonitrile:ethyl acetate at a ratio of 1:10 (plasma:organic solvent). […] The samples were reconstituted with LC-MS grade methanol prior to analysed by mass spectrometry.
LC analyses were performed on an Agilent 1260 LC infinity system consisting of a binary pump, a thermostated autosampler and a thermostated column compartment (Agilent, Waldbronn, Germany). Samples were analyzed on an Agilent Poroshell 120 C18 column (150×2.1 mm; 1.9 μm particle size) (Agilent, Waldbronn, Germany). […]
Tandem mass spectrometry was performed using a TSQ Endura™ Triple Quadrupole Mass Spectrometer (Thermo Fisher Scientific, Waltham, MA) operating in electrospray ionization (ESI). Xcalibur software (Thermo Fisher Scientific) was used for instrument control, data acquisition, qualitative and quantitative data analyses. […]

C=C(C)[C@@H]1CCC(C)=C[C@H]1c1c(O)cc(CCCCC)cc1O [CBD, cannabidiol]
Time of peak plasma concentration (topical composition of Example 1, 15 mg/kg CBD twice daily for 7 days, female rats): 96 h | Peak plasma concentration of CBD (topical composition of Example 1, 15 mg/kg CBD twice daily for 7 days, female rats, n=12): 21.08 ± 3.54 ng/mL | Plasma concentration of CBD by 168 h (topical composition of Example 1, 15 mg/kg twice daily, LOQ of LC-MS method 5 ng/ml): below the LOQ
